The record followed here is ChEMBL document CHEMBL1201862, “PubChem BioAssay data set” (2004).

Among the test systems are HCT-15; NCI-H522; HT-29; HCT-116; NCI-H460; SNB-19; IGROV-1; UACC-62; BT-549; HCC 2998; RPMI-8226; Hs-578T; MOLT-4; OVCAR-8; 786-0; CAKI-1; COLO 205; CCRF-CEM; OVCAR-3; SF-539.
Test in all cases: inhibition of tumour cell growth, NCI panel, 48 h

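Method: 48-hour compound exposure of cells in 96-well plates, five concentrations, linear interpolation of endpoints. GI50 is the concentration that inhibits growth by half.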 Calls of active or inactive are those of the source. No stated cut-off is given here; in the data, active = GI50 up to about 1.1 µM and inactive = higher. Where only a bound is given, the exact number is not on record here.

Regarding `O=C(c1ccccc1)n1c(Cc2ccccc2)nc2cc(C34CC5CC(CC(C5)C3)C4)ccc21`, the GI50 in the test with HCT-15 is 18.2 µM; in the test on NCI-H522, 37.3 µM (inactive); in the test on HT-29 it was 43.6 µM (inactive); with HCT-116 it was 44.3 µM (inactive); with NCI-H460, 52.7 µM (inactive); with SNB-19, 58.1 µM (inactive). Also, the GI50 was 53.6 µM (inactive) in the test with IGROV-1; 48.6 µM (inactive) in the test with UACC-62; 46.5 µM (inactive) in the test with BT-549; 77.3 µM (inactive) with HCC 2998; 31.8 µM (inactive) in the test with RPMI-8226; > 100 µM (inactive) in the test on Hs-578T. Further, the GI50 in the test on MOLT-4 was 35.9 µM (inactive); in the test on OVCAR-8 it was 37.2 µM (inactive); in the test on 786-0, 61.9 µM (inactive); in the test on CAKI-1, > 100 µM (inactive); in the test with COLO 205, 27.7 µM (inactive); in the test on CCRF-CEM it was 50.5 µM (inactive).
On to `CC(=O)Nc1c(C)cc(OCC(=O)O)cc1C`, for which the GI50 in the test with HCT-15 was more than 100 µM; in the test with NCI-H522, > 100 µM (inactive); in the test with HT-29 it was > 100 µM (inactive); in the test on HCT-116 it was > 100 µM (inactive); with NCI-H460, > 100 µM (inactive); in the test on SNB-19, > 100 µM (inactive). Besides, the GI50 in the test with IGROV-1, with UACC-62, in the test on BT-549, in the test on HCC 2998, with RPMI-8226 and in the test with Hs-578T was > 100 µM (inactive) each time. In addition, the GI50 in the test with OVCAR-8, in the test on 786-0, with CAKI-1, in the test with COLO 205, in the test on OVCAR-3 and with CCRF-CEM was > 100 µM (inactive) throughout.
Regarding `NNC(=O)C(O)C(O)C(=O)NN` (stereo not drawn), the GI50 in the test on HCT-15 is more than 100 µM; with NCI-H522 it was 54.5 µM (inactive); in the test on HT-29, > 100 µM (inactive); in the test with HCT-116 it was 73.3 µM (inactive); in the test with SNB-19, > 100 µM (inactive); in the test on IGROV-1, > 100 µM (inactive). Also, the GI50 in the test with UACC-62 was > 100 µM (inactive); in the test with BT-549 it was > 100 µM (inactive); with HCC 2998, > 100 µM (inactive); in the test on RPMI-8226 it was > 100 µM (inactive); in the test with Hs-578T, > 100 µM (inactive); with MOLT-4, 64.3 µM (inactive). In addition, the GI50 is > 100 µM (inactive) in the test with OVCAR-8; 98.4 µM (inactive) with 786-0; > 100 µM (inactive) with CAKI-1; > 100 µM (inactive) in the test on COLO 205; > 100 µM (inactive) in the test on OVCAR-3; > 100 µM (inactive) with CCRF-CEM.
On to `CSCCCNC(=O)[C@H](CSC)NC(=O)c1csc(CCNC(=O)[C@@H](NSc2ccccc2[N+](=O)[O-])C(C)O)n1` (stereo partly drawn), for which the GI50 in the test with HCT-15 is more than 100 µM; with NCI-H522, > 100 µM (inactive); in the test with HT-29, > 100 µM (inactive); in the test on HCT-116, > 100 µM (inactive); in the test on SF-539 it was > 100 µM (inactive); with NCI-H460 it was > 100 µM (inactive). The GI50 with SNB-19, in the test on IGROV-1, with UACC-62, in the test with BT-549, in the test with HCC 2998 and in the test with Hs-578T was > 100 µM (inactive) in each case. In addition, the GI50 with MOLT-4, in the test with OVCAR-8, in the test with 786-0, with CAKI-1, in the test with COLO 205 and in the test on OVCAR-3 was > 100 µM (inactive) each time. Also, the GI50 in the test on CCRF-CEM is > 100 µM (inactive).
Turning to `CC1=NNC(=O)C1C1CC(c2c[nH]c3ccccc23)=NNC1=O` (stereo not drawn), the GI50 in the test on HCT-15 was more than 100 µM; with NCI-H522, > 100 µM (inactive); with HT-29 it was > 100 µM (inactive); in the test on HCT-116, > 100 µM (inactive); with SF-539, > 100 µM (inactive); with NCI-H460, > 100 µM (inactive). Moreover, the GI50 in the test with SNB-19 was > 100 µM (inactive); with IGROV-1, 0.773 µM (active); in the test on UACC-62, > 100 µM (inactive); in the test on BT-549 it was > 100 µM (inactive); in the test with RPMI-8226, > 100 µM (inactive); with Hs-578T, > 100 µM (inactive). Besides, the GI50 with MOLT-4, with OVCAR-8, in the test on 786-0, with CAKI-1, in the test on COLO 205 and in the test on OVCAR-3 was > 100 µM (inactive) each time. In addition, the GI50 with CCRF-CEM is > 100 µM (inactive).
`Cc1cccc(NC(=O)/C=C/c2ccc([N+](=O)[O-])cc2)c1`: the GI50 is more than 35.1 µM in the test on HCT-15; 7.45 µM (inactive) in the test with NCI-H522; 35 µM (inactive) with HT-29; > 36.9 µM (inactive) in the test with HCT-116; > 29.8 µM (inactive) in the test with SF-539; > 43.5 µM (inactive) in the test on NCI-H460. The GI50 in the test with SNB-19 is > 33.2 µM (inactive); with IGROV-1, 18.5 µM (inactive); in the test with UACC-62 it was > 41.9 µM (inactive); in the test with BT-549, > 34.5 µM (inactive); with HCC 2998, 16.6 µM (inactive); in the test on Hs-578T it was 48.1 µM (inactive). The GI50 is > 36.4 µM (inactive) in the test with MOLT-4; > 37.2 µM (inactive) in the test on OVCAR-8; > 34.6 µM (inactive) in the test with 786-0; > 39.3 µM (inactive) in the test on CAKI-1; > 41.1 µM (inactive) with COLO 205; 12.5 µM (inactive) in the test on OVCAR-3. Besides, in the test on CCRF-CEM, the GI50 was 16 µM (inactive).
`O=C1C=CC(=O)[C@H]2C3C=CC(C4C3C3(Cl)C(Cl)=C(Cl)[C@]4(Cl)C3(Cl)Cl)[C@@H]12` (stereo partly drawn): the GI50 in the test on HCT-15 is 4.11 µM; with NCI-H522, 11 µM (inactive); in the test on HT-29 it was 3.66 µM (inactive); in the test on HCT-116, 3.61 µM (inactive); with SF-539 it was 5.28 µM (inactive); with NCI-H460, 4.02 µM (inactive). The GI50 is 5.62 µM (inactive) in the test on SNB-19; 5.79 µM (inactive) with IGROV-1; 8.83 µM (inactive) in the test with UACC-62; 5.96 µM (inactive) with BT-549; 3.3 µM (inactive) in the test on RPMI-8226; 10.9 µM (inactive) with Hs-578T. For the same compound, the GI50 was 3.75 µM (inactive) with MOLT-4; 8.47 µM (inactive) in the test on OVCAR-8; 5.94 µM (inactive) in the test on 786-0; 11.5 µM (inactive) in the test with CAKI-1; 5.7 µM (inactive) in the test on COLO 205; 2.95 µM (inactive) with OVCAR-3. For the same compound, the GI50 with CCRF-CEM is 2.95 µM (inactive).
As to `C1=Cc2nccc3cc4c(c(c23)N1)OCO4`, the GI50 was 13.9 µM in the test with HCT-15; 2.42 µM (inactive) with NCI-H522; 3.08 µM (inactive) in the test with HCT-116; 4.36 µM (inactive) in the test with NCI-H460; 7.08 µM (inactive) with SNB-19; 2.56 µM (inactive) in the test on IGROV-1. The GI50 in the test on UACC-62 was 14.1 µM (inactive); with BT-549, 20.3 µM (inactive); in the test with HCC 2998, 8.95 µM (inactive); in the test with RPMI-8226, 4.53 µM (inactive); with Hs-578T it was 3.58 µM (inactive); with MOLT-4, 1.39 µM (inactive). In addition, the GI50 in the test with OVCAR-8 was 3.93 µM (inactive); with 786-0 it was 4.03 µM (inactive); with CAKI-1 it was 8.99 µM (inactive); with COLO 205, 3.55 µM (inactive); with OVCAR-3, 10.9 µM (inactive); with CCRF-CEM it was 7.69 µM (inactive).
As for `Cc1cc(Cl)nc(Nc2nc3ccccc3[nH]2)n1`, the GI50 with HCT-15 was more than 100 µM; with NCI-H522, 2.96 µM (inactive); in the test on HT-29 it was > 100 µM (inactive); in the test with HCT-116, > 100 µM (inactive); in the test with SF-539, > 100 µM (inactive); with NCI-H460, > 100 µM (inactive). Besides, the GI50 is > 100 µM (inactive) with SNB-19; > 100 µM (inactive) in the test with IGROV-1; > 100 µM (inactive) in the test with UACC-62; > 100 µM (inactive) in the test on BT-549; > 100 µM (inactive) in the test with HCC 2998; 40.1 µM (inactive) with Hs-578T. Besides, the GI50 in the test on OVCAR-8, with 786-0, in the test with COLO 205, in the test on OVCAR-3 and in the test on CCRF-CEM was > 100 µM (inactive) throughout.
As to `COc1ccc(NC(=O)/C(CC2=Nc3ccc([N+](=O)[O-])cc3NC2O)=N\NC(=O)C[N+](C)(C)C)c(OC)c1` (stereo not drawn), the GI50 is 45.9 µM in the test on HCT-15; 18 µM (inactive) in the test on NCI-H522; > 100 µM (inactive) in the test on HT-29; 30.4 µM (inactive) in the test on HCT-116; 26.5 µM (inactive) in the test on SF-539; 40.5 µM (inactive) in the test on NCI-H460. Also, the GI50 with SNB-19 was > 100 µM (inactive); in the test on IGROV-1, 80.7 µM (inactive); with UACC-62, > 100 µM (inactive); in the test with BT-549, > 100 µM (inactive); with HCC 2998, > 100 µM (inactive); with Hs-578T, > 100 µM (inactive). Besides, the GI50 with MOLT-4 is > 100 µM (inactive); with OVCAR-8 it was 30.1 µM (inactive); in the test with 786-0, 30.1 µM (inactive); in the test on CAKI-1 it was > 100 µM (inactive); in the test on COLO 205 it was 43 µM (inactive); in the test with OVCAR-3, > 100 µM (inactive). The GI50 with CCRF-CEM is 40.3 µM (inactive).
As to `COc1ccccc1N=C(S)Nc1ccccn1`, the GI50 in the test with HCT-15 is more than 100 µM; in the test on NCI-H522, 43.4 µM (inactive); in the test on HT-29, > 100 µM (inactive); in the test on HCT-116, > 100 µM (inactive); in the test on SF-539, 67.9 µM (inactive); in the test on NCI-H460, > 100 µM (inactive). Besides, the GI50 in the test on SNB-19 is 73.8 µM (inactive); with IGROV-1 it was > 100 µM (inactive); in the test with UACC-62, > 100 µM (inactive); in the test on BT-549 it was > 100 µM (inactive); with RPMI-8226, > 100 µM (inactive); with Hs-578T, 84.7 µM (inactive). Moreover, the GI50 was > 100 µM (inactive) in the test with MOLT-4; 99.8 µM (inactive) in the test on OVCAR-8; 56.5 µM (inactive) with 786-0; > 100 µM (inactive) in the test with CAKI-1; > 100 µM (inactive) in the test on COLO 205; > 100 µM (inactive) in the test with OVCAR-3. Also, the GI50 with CCRF-CEM is > 100 µM (inactive).
